Results: ChEMBL document CHEMBL1201862, “PubChem BioAssay data set” (2004)
Active and inactive are the calls of the source.

Tested on: not listed separately
Test: viability of uninfected HEp-2 cells – cell-based, HTS, cytotoxicity control for RSV inhibitor project, dose response (AID 2410)
Format: functional
Settings: human respiratory syncytial virus

Row | Compound | CC50
1 | COc1cc(Cn2nnc3ccccc32)cc(Br)c1O | 23.2 µM (active)
2 | COc1ccc(N(C)C(=O)c2cc3c(s2)-c2c(C)cccc2OC3)c(OC)c1 | 19.6 µM (active)
3 | Cc1oc2cc(O)cc(C)c2c(=O)c1-c1cnn(-c2ccccc2)c1 | 15.6 µM (active)
4 | C/C(=N\Nc1cccc([N+](=O)[O-])c1)c1cc(F)ccc1O | > 50 µM (active)
5 | O=C(N/C=C/c1ccccc1)Nc1ccc(Cl)cc1 | 20.8 µM (active)
6 | Cc1noc(C)c1COC(=O)CCN1c2ccccc2Sc2ccccc21 | 37.9 µM (active)
7 | O=[N+]([O-])c1cc(C(F)(F)F)ccc1SCC(O)CO (centres undefined) | > 50 µM (active)
8 | O=C(Nc1cnc(O)nc1O)c1cccc(F)c1 | 18.6 µM (active)
9 | CCOc1ccc(S(=O)(=O)N2CCN(c3ccccc3)CC2)c2cccnc12 | 30.9 µM (active)
10 | COC(=O)c1[nH]c2ccc(Br)cc2c1NC(=O)CN1CCCc2ccccc21 | 41.9 µM (active)
11 | CC(C)(C)C(=O)Nc1cccc(-c2cc(-c3c(Cl)cccc3Cl)no2)c1 | 12.9 µM (active)
12 | Brc1ccc2c(c1)C(c1ccc(N3CCOCC3)cc1)=NNC(c1cccs1)=N2 | 32.1 µM (active)

Tested on: Streptococcus sp. 'group A'
Test: Streptococcus pyogenes SK(-)GAS viability under kanamycin – luminescence, BacTiterGlo, confirmation, counter-screen for streptokinase expression inhibitor project, dose response (AID 1900)
Format: functional, organism-based
Settings: not given

Row | Compound | EC50
13 | O=C(Nc1nnc(SCc2ccccc2Cl)s1)C1COc2ccccc2O1 (centres undefined) | 4.52 µM (active)
14 | Oc1c(Br)cc(Br)cc1CNc1ccc(F)cc1 | 20.4 µM (active)
15 | O=C(CNC(=O)c1ccc(F)cc1)N/N=C/c1cc(Br)ccc1OCc1ccccc1 | 10.3 µM (active)

Target: T1, Streptokinase A (Streptococcus pyogenes serotype M1, UniProt P10520)
T1 sequence (P10520 whole entry): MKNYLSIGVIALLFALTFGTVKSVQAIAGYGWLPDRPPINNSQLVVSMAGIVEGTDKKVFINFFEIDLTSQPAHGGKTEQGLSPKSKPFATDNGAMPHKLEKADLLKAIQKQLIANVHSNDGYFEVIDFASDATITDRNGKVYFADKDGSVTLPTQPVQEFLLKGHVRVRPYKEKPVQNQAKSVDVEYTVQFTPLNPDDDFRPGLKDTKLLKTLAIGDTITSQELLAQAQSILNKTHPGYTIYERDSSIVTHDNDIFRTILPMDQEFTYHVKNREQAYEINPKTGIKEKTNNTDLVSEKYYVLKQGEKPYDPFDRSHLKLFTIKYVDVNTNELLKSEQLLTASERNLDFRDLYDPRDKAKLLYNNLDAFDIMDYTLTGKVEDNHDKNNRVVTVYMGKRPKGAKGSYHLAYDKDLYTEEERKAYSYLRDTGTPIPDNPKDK
Test: viability-normalized secreted streptokinase activity reduction – plasminogen activation absorbance, OD405, dose response (AID 1914);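 further: secreted streptokinase activity via plasminogen activation per viability signal from cell pellet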
Format: functional, Streptococcus pyogenes M1 GAS
Settings: not given

Row | Compound | EC50
16 | O=C(Nc1nnc(SCc2ccccc2Cl)s1)C1COc2ccccc2O1 (centres undefined) | 7.36 µM (active)
17 | Oc1c(Br)cc(Br)cc1CNc1ccc(F)cc1 | 84.4 µM (active)
18 | O=C(CNC(=O)c1ccc(F)cc1)N/N=C/c1cc(Br)ccc1OCc1ccccc1 | > 150 µM (not active)

Tested on: Streptococcus
Test: GAS UMAA2166 growth inhibition – luminescence, BacTiterGlo, counter-screen for streptokinase expression inhibitor project, dose response (AID 1915);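 further: potency for reduction of bacterial viability or growth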
Format: functional, organism-based
Settings: not given

Row | Compound | EC50
19 | O=C(Nc1nnc(SCc2ccccc2Cl)s1)C1COc2ccccc2O1 (centres undefined) | 16.7 µM (active)
20 | Oc1c(Br)cc(Br)cc1CNc1ccc(F)cc1 | > 150 µM (not active)
21 | O=C(CNC(=O)c1ccc(F)cc1)N/N=C/c1cc(Br)ccc1OCc1ccccc1 | 32.6 µM (active)

Target: T2, Heat shock factor protein 1 (Mus musculus, UniProt P38532)
T2 sequence (P38532 whole entry): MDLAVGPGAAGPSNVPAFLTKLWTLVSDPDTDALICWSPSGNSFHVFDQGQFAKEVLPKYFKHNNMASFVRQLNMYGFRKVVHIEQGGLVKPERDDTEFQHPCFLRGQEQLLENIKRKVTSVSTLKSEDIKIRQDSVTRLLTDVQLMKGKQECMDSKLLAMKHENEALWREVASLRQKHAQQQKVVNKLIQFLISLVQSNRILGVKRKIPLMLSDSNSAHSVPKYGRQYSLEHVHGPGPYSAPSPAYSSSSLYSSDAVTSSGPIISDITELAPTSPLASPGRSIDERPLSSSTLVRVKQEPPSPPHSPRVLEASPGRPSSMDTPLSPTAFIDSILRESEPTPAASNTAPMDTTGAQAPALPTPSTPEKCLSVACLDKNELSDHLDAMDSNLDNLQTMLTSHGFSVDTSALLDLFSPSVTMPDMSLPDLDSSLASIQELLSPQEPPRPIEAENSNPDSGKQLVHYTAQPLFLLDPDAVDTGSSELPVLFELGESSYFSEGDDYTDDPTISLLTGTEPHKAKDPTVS
Test: enhancement of HSF1-driven luciferase signal – cell-based, NIH3T3, luminescence, dose retest, confirmation (AID 435004);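 further: stress induced by proteasome inhibitor MG132 added 30 min after compound; luciferase reporter driven by HSF1 response element in NIH3T3 cells; actives raise luminescence as potentiators of the MG132 stress response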
Format: functional
Settings: not given

Row | Compound | EC50
22 | CC(C)(C)C(=O)Nc1cccc(-c2cc(-c3c(Cl)cccc3Cl)no2)c1 | > 260 µM (inactive)

Target: T3, Replicative DNA helicase DnaB (Mycobacterium tuberculosis, UniProt P9WMR3)
T3 sequence (P9WMR3 whole entry): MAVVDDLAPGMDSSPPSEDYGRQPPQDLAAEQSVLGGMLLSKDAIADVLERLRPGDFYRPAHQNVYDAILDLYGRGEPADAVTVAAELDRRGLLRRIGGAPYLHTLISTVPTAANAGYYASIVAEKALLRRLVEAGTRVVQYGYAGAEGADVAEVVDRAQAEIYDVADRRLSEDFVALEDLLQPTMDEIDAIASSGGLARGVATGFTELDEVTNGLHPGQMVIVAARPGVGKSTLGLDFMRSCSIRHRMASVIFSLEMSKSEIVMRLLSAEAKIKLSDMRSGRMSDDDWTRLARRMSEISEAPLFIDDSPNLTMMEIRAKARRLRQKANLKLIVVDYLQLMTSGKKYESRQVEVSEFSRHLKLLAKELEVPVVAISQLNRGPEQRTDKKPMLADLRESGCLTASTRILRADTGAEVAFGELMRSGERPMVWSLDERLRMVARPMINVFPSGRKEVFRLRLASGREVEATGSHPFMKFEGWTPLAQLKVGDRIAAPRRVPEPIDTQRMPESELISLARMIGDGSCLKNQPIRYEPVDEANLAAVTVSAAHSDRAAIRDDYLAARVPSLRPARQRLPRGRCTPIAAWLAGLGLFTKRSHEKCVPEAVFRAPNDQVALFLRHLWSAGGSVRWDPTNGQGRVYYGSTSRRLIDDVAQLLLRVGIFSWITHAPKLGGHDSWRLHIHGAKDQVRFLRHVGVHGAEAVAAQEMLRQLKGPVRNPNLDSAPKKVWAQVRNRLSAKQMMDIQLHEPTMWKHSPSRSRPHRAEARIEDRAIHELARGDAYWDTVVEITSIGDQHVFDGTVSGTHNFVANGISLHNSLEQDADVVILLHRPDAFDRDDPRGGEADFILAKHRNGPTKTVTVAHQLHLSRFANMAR
Test: DnaB intein splicing inhibitors, dose response, biochemical, cell-free fluorescence (AID 449749)
Format: functional
Settings: not given

Row | Compound | AC50
23 | COc1ccc(N(C)C(=O)c2cc3c(s2)-c2c(C)cccc2OC3)c(OC)c1 | 74.5 µM (active)

Target: T4, Protein RecA (Mycobacterium tuberculosis, UniProt P9WHJ3)
T4 sequence (P9WHJ3 whole entry): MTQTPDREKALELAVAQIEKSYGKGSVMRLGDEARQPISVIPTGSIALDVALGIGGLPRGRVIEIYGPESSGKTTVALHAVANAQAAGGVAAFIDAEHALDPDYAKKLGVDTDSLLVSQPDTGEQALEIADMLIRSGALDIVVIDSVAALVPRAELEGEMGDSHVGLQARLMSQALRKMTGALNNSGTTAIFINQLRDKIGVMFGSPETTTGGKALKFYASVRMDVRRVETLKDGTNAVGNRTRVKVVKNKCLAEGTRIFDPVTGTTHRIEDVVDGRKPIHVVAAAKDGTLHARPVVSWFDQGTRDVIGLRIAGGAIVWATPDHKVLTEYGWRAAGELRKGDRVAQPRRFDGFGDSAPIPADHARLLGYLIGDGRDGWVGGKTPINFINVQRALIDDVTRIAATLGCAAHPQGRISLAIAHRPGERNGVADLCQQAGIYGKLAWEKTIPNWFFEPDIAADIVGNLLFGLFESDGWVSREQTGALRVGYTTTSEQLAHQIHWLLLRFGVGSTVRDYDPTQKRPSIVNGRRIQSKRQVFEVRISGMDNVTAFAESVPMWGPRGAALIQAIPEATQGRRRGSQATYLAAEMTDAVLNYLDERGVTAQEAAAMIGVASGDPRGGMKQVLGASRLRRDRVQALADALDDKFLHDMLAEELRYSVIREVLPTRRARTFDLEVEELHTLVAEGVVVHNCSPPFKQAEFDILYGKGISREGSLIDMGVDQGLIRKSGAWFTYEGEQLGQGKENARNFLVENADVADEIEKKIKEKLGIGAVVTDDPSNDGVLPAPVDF
Test: Fluorescence Cell-Free Homogeneous Dose Retest to Identify Inhibitors of RecA-Intein Splicing Activity. [Related pubchem assays (depositor defined):AID2097, AID2223, AID489010, AID492950]
Format: functional
Settings: not given

Row | Compound | EC50
24 | COc1ccc(N(C)C(=O)c2cc3c(s2)-c2c(C)cccc2OC3)c(OC)c1 | 133 µM (inconclusive)
